Like-named read-outs stand apart in the source and are kept apart here.
Key:
[1] = target: T1, LSD1 (Homo sapiens, UniProt O60341); conditions: in vitro assays; cited from earlier work
T1 construct: Reaction Biology Corporation (performed the assay)

[2] = target: T2, purified MAO-A (Homo sapiens, UniProt P21397); assay: MAO-A direct screening assay (inhibitor screening kit); type: biochemical; conditions: purified enzyme; read-out: IC50, inhibition of MAO-A
T2 construct: purchased Sigma-Aldrich MAK295
T2 sequence (P21397 1-527): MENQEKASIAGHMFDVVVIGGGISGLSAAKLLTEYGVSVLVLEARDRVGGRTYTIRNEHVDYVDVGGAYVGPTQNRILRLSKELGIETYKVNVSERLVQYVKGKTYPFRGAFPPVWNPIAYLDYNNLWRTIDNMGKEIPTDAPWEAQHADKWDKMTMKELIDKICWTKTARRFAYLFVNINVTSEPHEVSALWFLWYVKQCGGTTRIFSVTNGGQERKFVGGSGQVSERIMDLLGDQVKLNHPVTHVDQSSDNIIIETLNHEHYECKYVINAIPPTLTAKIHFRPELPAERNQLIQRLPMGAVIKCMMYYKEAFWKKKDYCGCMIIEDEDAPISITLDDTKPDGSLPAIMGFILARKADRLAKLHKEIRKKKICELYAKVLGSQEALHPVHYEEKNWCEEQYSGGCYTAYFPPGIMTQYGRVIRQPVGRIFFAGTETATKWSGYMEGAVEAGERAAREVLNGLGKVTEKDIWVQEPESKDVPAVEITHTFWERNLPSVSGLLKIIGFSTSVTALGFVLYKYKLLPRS
Procedure: The assays were conducted for MAO-A and MAO-B according to the manufacturer’s instructions.

[3] = system: MAO-A/B expression; assay: MAO-A/B protein expression in HC- or DEX-stimulated BJ cells (Western blotting); type: cell-based, human; conditions: 10 μM HC 5 days or 100 μM DEX 7 days, then 50 μM compound; Western blot
Procedure: (§1) The BJ cells were subsequently incubated with 10 μM HC or 100 μM DEX to stimulate MAO expression. […] The untreated BJ cells received normal growth medium. The cells were collected, homogenised, and analysed through Western blotting where the expression of MAO-A/B was determined through immunodetection of protein subtypes.

[4] = system: T3, MAO-B; assay: MAO-B activity assay in corticosteroid-stimulated BJ cells; type: cell-based, human; conditions: then 50 μM compound 24 h
T3 construct: endogenous in cells; host or cells: BJ human foreskin fibroblasts stimulated with DEX or HC
Procedure: as §1
(§2) Activity assays were commercially sourced from BioVision (Abcam, BioVision ab241031, Waltham, MA, USA) and were performed according to manufacturer’s instructions. The treatment groups were plated in duplicate on a black, flat 96-well microplate. The cells were homogenised in assay buffer using a microtube mixer at 4 °C and centrifuged at 10,000× g for 10 min. A Bradford assay was performed to determine the total protein concentration within each cell pellet (200 μg/well for BJ cells, 40 μg/well for hESC-derived neurons). Approximately 40 μL of supernatant was loaded into wells along with 10 μL of either […], or assay buffer for total MAO activity. A H2O2 standard was pipetted as supplied and 50 μL of reaction mix was pipetted into all wells. Using a CLARIOstar Plus Microplate Reader, (BMG Labtech, Ortenberg, Germany), fluorescence was measured kinetically at 25 °C for 60 min with Ex/Em = 535/587 nm.

[5] = system: T3, MAO-B; assay: MAO-B activity assay in hESC-derived neurons stimulated with ATRA; type: cell-based, human; conditions: 1 μM ATRA 24 h, then TCP 5 μM, OLC 50 μM or OLP 50 μM for 24 h
Procedure: (§3) An in vitro model of MDD was designed for stem cell-derived neuronal cells through incubation of 1 μM all-trans retinoic acid (Sigma-Aldrich PHR1187, St. Louis, MO, USA). All cell treatments were conducted in duplicate and replicated using independently differentiating neuronal plates.
as §2

[6] = system: human skin fibroblasts; parameters: method as in PMID 37432217; conditions: in comparison to untreated controls, at certain doses; cited from earlier work
[7] = system: T4, MAO-A; assay: MAO-A activity assay in corticosteroid-stimulated BJ cells; type: cell-based, human; conditions: then 50 μM compound 24 h
T4 construct: endogenous in cells; host or cells: BJ human foreskin fibroblasts stimulated with DEX or HC
Procedure: as §1, §2

[8] = system: T4, MAO-A; assay: MAO-A activity assay in hESC-derived neurons stimulated with ATRA; type: cell-based, human; conditions: 1 μM ATRA 24 h, then TCP 5 μM, OLC 50 μM or OLP 50 μM for 24 h
Procedure: as §3, §2

[9] = system: total MAO; assay: Total MAO activity assay in hESC-derived neurons stimulated with ATRA; type: cell-based, human; conditions: 1 μM ATRA 24 h, then TCP 5 μM, OLC 50 μM or OLP 50 μM for 24 h
Procedure: as §3, §2

[10] = target: T1, LSD1; assay: LSD1 fluorescence coupling enzyme assay (Reaction Biology Corporation); type: biochemical; conditions: Reaction Biology Corp., 30 min pre-incubation, 10 μM histone H3(1-21)K4me2 peptide substrate; read-out: IC50, LSD1 demethylase activity
Procedure: The inhibitory activity of HCl 489479, OLC, and OLP was measured using a fluorescence coupling enzyme assay (performed by Reaction Biology Corporation). […] All compounds were pre-incubated for 30 min with the enzyme before the addition of 10 μM histone H3(1-21)K4me2 peptide substrate to start the reaction. Fluorescence was measured using an EnVision Multimode Plate Reader at Ex/Em = 535/590.

[11] = system: total MAO; assay: Total MAO activity assay in corticosteroid-stimulated BJ cells; type: cell-based, human; conditions: then 50 μM compound 24 h
Procedure: as §1, §2

[12] = system: BJ cells; assay: Viability of BJ cells (CellTiter-Blue Cell Viability Assay); type: cell-based, human; conditions: for IC50: Homo sapiens, BJ
Procedure: The BJ cells were seeded at densities of 10,000 cells in black flat bottom 96-well plates (Nalge Nunc, Penfield, Rochester, NY, USA) and treated with a dose–response of OLC (0–500 μM) and OLP (0–500 μM) for 24 h, 48 h, 72 h, and 7 days at 37 °C, 5% (v/v) CO2. Cell viability was measured using the Cell-Titer Blue® Assay kit (Promega, Madison, WI, USA) according to the manufacturer’s instructions. Cell-Titer Blue reagent was added to each well and incubated for 4 h at 37 °C with 5% (v/v) CO2 before the fluorescence intensity was read using the CLARIOstar Microplate Reader (BMG Labtech, Ortenberg, Germany).
A Nikon Eclipse Ts2 light microscope (Nikon Ti TS2-S-SM, Tokyo, Japan) was used to image untreated and treated BJ cells (OLP or OLC: 0–100 μM) at 4× objective magnification at 20, 44, and 120 h (Figures S1 and S2).

Structure (SMILES) | IC50 [1] [µM] | IC50 [2] [µM] | MAO enzyme expression within BJ cells [3] | MAO-B activity in BJ cells ([4]; 10 μM HC 5 days) | MAO-B activity in BJ cells ([4]; 100 μM DEX 7 days) | MAO-B activity in hESC-derived neurons [5] | growth capacity of human skin fibroblasts [6] | MAO-A activity in BJ cells ([7]; 10 μM HC 5 days) | MAO-A activity in BJ cells ([7]; 100 μM DEX 7 days) | MAO-A activity in hESC-derived neurons [8] | total MAO activity in hESC-derived neurons [9] | IC50 [10] [µM] | total MAO activity in BJ cells ([11]; 10 μM HC 5 days) | total MAO activity in BJ cells ([11]; 100 μM DEX 7 days) | relative viability of BJ cells at the highest concentration ([12]; 500 μM) | proliferation potential of BJ cells ([12]; 25, 50, 75 and 100 μM, similar to untreated cells) | IC50 ([12]; 24 h) [µM] | IC50 ([12]; 48 h) [µM] | toxicity to BJ cells at the concentrations used in further experiments ([12]; concentrations used in further experiments (50 μM)) | viability of BJ cells at lower concentrations ([12]; up to 200 μM)
CC=C(C=O)C(CC=O)CC(=O)OCCc1ccc(O)c(O)c1 (stereo in doubt) [oleacein] | ~2.5 | – | – | – | – | – | – | – | – | – | – | – | – | – | – | – | – | – | – | –
C/C=C(/C=O)[C@@H](CC=O)CC(=O)OCCc1ccc(O)cc1 [OLC, oleocanthal] | – | 1.9 | Potent inhibition | downregulate | downregulate | significantly reduced | significantly increased | downregulate | downregulate | significantly reduced | significantly reduced | 12 | downregulate | downregulate | reduction | maintained their proliferation potential | 123 | 111 | non-toxic | largely maintained

Source: article PMC11173677, “Identification and Evaluation of Olive Phenolics in the Context of Amine Oxidase Enzyme Inhibition and Depression: In Silico Modelling and In Vitro Validation” (Molecules, 2024)
